The subject of assay [1] is IFN induction in virus-stimulated THP1 cells. Nature of the assay: Human cGAS cell assay, baculovirus-stimulated THP1-Dual cells, Lucia luciferase reporter (THP1(vir) IC50).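 As to all read-outs here: IRF-dependent luminescence, 8 concentrations up to 10 µM in 1% DMSO, 0% = unstimulated cells, 100% = DMSO plus virus, counter assay stimulated with cGAMP downstream of cGAS.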 In kind it is cell-based. As to conditions: for IC50: Homo sapiens, THP-1, baculovirus-stimulated THP1-Dual cells, 18 h; for Ratio THP(cGAMP) IC50/THP(vir) IC50: selectivity for cGAS inhibition.
From the text: THP1-Dual™ cells (InvivoGen #thpd-nfis) expressing IRF dependent Lucia luciferase reporter were used as basis for both assays. For the detection of cellular cGAS activity cells were stimulated by a baculovirus (pFastbac-1, Invitrogen, no coding insert) infection that delivers the cGAS enzyme stimulating double-stranded DNA (measurement of THP1(vir) IC50).
(§1) For the counter assay, cells were stimulated by cGAMP (SigmaAldrich #SML1232) to activate the identical pathway independent and directly downstream of cGAS (measurement of THP1(cAMP) IC50). Pathway activity was monitored by measuring the Lucia luciferase activity induced by either DNA stimulated cGAS enzyme activity (measurement of THP1^(vir) IC50) or by cGAMP directly (measurement of THP1(cAMP) IC50, counter assay).
Typically, 8 concentrations were used with the highest concentration at 10 μM in the final assay volume followed by ˜1:5 dilution steps. DMSO concentration was set to 1% in the final assay volume. The 384 well assay plate contained 21 test compounds (column 1-22), and DMSO in column 23 and 24.
The baculovirus solution was then added 1:200 (may have varied according to virus batch) to the cells (measurement of THP1(vir) IC50).
(§2) 30 μL of the cell/virus-mix were added to each well of the compound plate from column 1-23 via MultiDrop Combi dispenser (5000 cells/well). In column 24, 30 μl/5000 cells/well without virus were added as a low control.
(§3) The plates were then incubated for 18 h at 37° C. in a humidified incubator.
(§4) Following that, 15 μL of QuantiLuc detection reagent (InvivoGen #rep-qlcg5) were added to each well using a MultiDrop Combi. Measurement was done immediately after the addition using an EnVision reader (US-luminescence read-mode).
Data Evaluation and Calculation:
(§5) For data evaluation and calculation, the measurement of the low control was set as 0% control and the measurement of the high control was set as 100% control. The IC50 values were calculated using the standard 4 parameter logistic regression formula. Calculation: [y=(a−d)/(1+(x/c)^b)+d], a=low value, d=high value; x=conc M; c=1C50 M; b=slope
Assay [2] concerns IFN induction in cGAMP-stimulated THP1 cells. The assay can be described thus: cGAMP stimulated counter cell assay, THP1-Dual cells, Lucia luciferase reporter (THP1(cGAMP) IC50).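 Also: IRF-driven Lucia luciferase luminescence after 18 h at 37° C, compound series topping at 10 µM with 1% DMSO, unstimulated wells as 0% and DMSO wells as 100%.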 In kind it is cell-based. As to conditions: Homo sapiens, THP-1, THP1-Dual cells stimulated with 10 μM cGAMP.
From the text: 6.2 Method: Human cGAS Cell Assay and cGAMP Stimulated Counter Cell Assay (THP1(vir) IC50 and THP1(cGAMP) IC50)
THP1-Dual™ cells (InvivoGen #thpd-nfis) expressing IRF dependent Lucia luciferase reporter were used as basis for both assays.
as §1
Compounds were delivered in 10 mM DMSO solution, serially diluted and transferred to the 384 well assay plate (Greiner #781201) using an Echo acoustic dispenser. Typically, 8 concentrations were used with the highest concentration at 10 μM in the final assay volume followed by ˜1:5 dilution steps. DMSO concentration was set to 1% in the final assay volume. The 384 well assay plate contained 21 test compounds (column 1-22), and DMSO in column 23 and 24.
as §2, §3, §4
Data Evaluation and Calculation:
as §5
Assay [3] has as its system IFN induction in dsDNA-stimulated human whole blood. Nature of the assay: Human whole blood assay, dsDNA transfection, IFNα2a production (hWB IC50).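 Also: cGAS pathway activity, IFNα2a in plasma by MSD immunoassay after 22 h at 37 °C, 8 concentrations up to 10 µM in 0.1% DMSO, DMSO controls.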 In kind it is cell-based.
Method: For the detection of cellular cGAS activity human whole blood was stimulated by transfection with double stranded DNA. Pathway activity was monitored by measuring the IFNα2α production.
Typically, 8 concentrations were used with the highest concentration at 10 μM in the final assay volume followed by ˜1:5 dilution steps. DMSO concentration was set to 0.1% in the final assay volume. The 96-well assay plate contained 10 test compounds, and DMSO in control wells.
Whole blood was kept at room temperature for a maximum of 3 hours after collection until use in the assay.
160 μl of the whole blood samples was transferred to each well of the 96-well assay plates filled with compound/OptiMEM. All assay plates were prepared as duplicates with blood from different donors. Blood plates were kept at room temperature for 60 minutes and continuous shaking with 450 rpm, covered with the lid, but not sealed.
20 μl OptiMEM and 9.6:1 Fugene was added to all low control wells.
After covering assay plates with aera seals and the lid, blood plates were kept at room temperature for 30 minutes and continuous shaking with 450 rpm, followed by an overnight incubation of 22 h at 37° C. in the incubator, without shaking.
U-Plex MSD GOLD 96-well Small Spot Strepavidin SECTOR Plates (Meso Scale Diagnostics #L45SA-5) were coated with 25 μl diluted capture antibody. Coated plates were incubated for 60 min at room temperature under continuous shaking at 700 rpm. MSD IFNα-2a plates were washed three times with 150 μl wash buffer (1×HBSS, 0.05% Tween).
After blocking the plates with 100 μl block solution/well (1×HBSS with 0.2% Tween, 2% BSA) for 60 min at room temperature and continuous shaking at 700 rpm, plates were emptied as dry as possible by dumping just before continuing with the human plasma.
Whole Blood assay plates were centrifuged at 1600 rpm for 10 minutes. 25 μl of supernatant was transferred with a pipetting robot from each whole blood plate to the corresponding IFNα-2a plate.
Plates were sealed with microplate seals and kept at room temperature again under continuous shaking at 700 rpm for two hours.
Next MSD IFNα-2a plates were washed three times with 150 μl wash buffer (1×HBSS, 0.05% Tween), before adding 25 μl MSD SULFO-TAG IFNα-2a Antibody solution (1:100 diluted in Diluent 3 (Meso Scale Diagnostics #R50AP-2) to each well of the plates.
Afterwards plates were sealed with microplate seals and kept at room temperature again under continuous shaking at 700 rpm for two hours. Finally, MSD IFNα-2α plates were washed three times with 150 μl wash buffer (1×HBSS, 0.05% Tween). 150 μl 2× Read buffer was added to each well and plates were immediately measured with the MSD Sector S600 Reader using the vendor barcode.
For data evaluation and calculation, % control calculation of each well was based on the mean of high (DNA stimulated control) and mean of low (unstimulated control) controls by using the following formula: [counts(sample)−counts(low))/(counts(high)−counts(low))]*100
The IC50 values were calculated using the standard 4 parameter logistic regression formula. Calculation: [y=(a−d)/(1+(x/c)^b)+d], a=low value, d=high value; x=conc M; c=1C50 M; b=slope
For the next assay, the target named is Human cGAS (Homo sapiens (Human), UniProt Q8N884). The assay can be described thus: Human cGAS enzyme assay (hcGAS IC50, in vitro), cGAMP formation by RapidFire MS.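 Also: compounds preincubated 60 min, then GTP and ATP (30 µM each) added for 90 min at room temperature, cGAMP read relative to cyclic-di-GMP internal standard, no-enzyme/DNA wells as 0%.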 To be noted: 45 bp dsDNA, GTP/ATP. In kind it is biochemical.
Human cGAS, sequence (Q8N884 whole entry): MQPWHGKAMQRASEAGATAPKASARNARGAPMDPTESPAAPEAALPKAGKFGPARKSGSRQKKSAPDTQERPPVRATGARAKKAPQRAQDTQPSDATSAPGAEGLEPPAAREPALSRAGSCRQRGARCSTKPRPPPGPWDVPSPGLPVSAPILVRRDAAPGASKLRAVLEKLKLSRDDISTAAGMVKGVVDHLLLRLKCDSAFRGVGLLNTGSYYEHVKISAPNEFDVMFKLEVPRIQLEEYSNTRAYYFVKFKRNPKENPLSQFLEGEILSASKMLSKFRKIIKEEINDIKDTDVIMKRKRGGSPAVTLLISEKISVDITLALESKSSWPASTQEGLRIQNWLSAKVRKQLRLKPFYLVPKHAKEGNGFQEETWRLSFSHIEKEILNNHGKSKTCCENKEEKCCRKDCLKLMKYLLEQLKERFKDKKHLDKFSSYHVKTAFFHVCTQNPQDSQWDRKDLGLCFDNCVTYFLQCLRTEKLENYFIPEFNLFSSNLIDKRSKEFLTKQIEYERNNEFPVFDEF

With `CO[C@]1(c2cc(Cl)cnc2O[C@H]2C[C@@H](C(=O)O)N(c3nc(C(F)F)nc4c3oc3ccccc34)C2)CCS(=O)(=O)C[C@@H]1C` [Example 2.06], the IC50 stood at 314 nM in assay [1], 14600 nM in assay [2], 287 nM in assay [3] and 8 nM on Human cGAS. For the same molecule, in assay [1], the “Ratio THP(cGAMP) IC50/THP(vir) IC50” value was 46.

As for `C#Cc1cnc(O[C@H]2C[C@@H](C(=O)O)N(c3nc(C(F)(F)F)nc4c3oc3ccccc34)C2)c(C2(F)CCS(=O)(=O)CC2)c1` [Example 2.07], the IC50 in assay [1] was 688 nM; in assay [2] it was above 16600 nM; in assay [3], 97 nM; against Human cGAS, 2 nM. Moreover, the “Ratio THP(cGAMP) IC50/THP(vir) IC50” value in assay [1] is above 24.

Consider `C#Cc1cnc(O[C@H]2C[C@@H](C(=O)O)N(c3nc(C(F)(F)F)nc4c3oc3ccccc34)C2)c([C@]2(F)CCOC[C@@H]2C)c1` [Example 1.04], for which the IC50 worked out at 378 nM in assay [1], 24900 nM in assay [2], 648 nM in assay [3] and 4 nM against Human cGAS. The “Ratio THP(cGAMP) IC50/THP(vir) IC50” value in assay [1] came out at 66.

As to `CC(=O)N1CC[C@](F)(c2cc(Cl)cnc2O[C@H]2C[C@@H](C(=O)O)N(c3nc(C(F)F)nc4c3oc3ccccc34)C2)[C@@H](C)C1` [Example 1.22], the IC50 was determined as 85 nM in assay [1], 16100 nM in assay [2], 114 nM in assay [3] and 4 nM against Human cGAS. Also, in assay [1], the “Ratio THP(cGAMP) IC50/THP(vir) IC50” value is 189.

`C#Cc1cnc(O[C@H]2C[C@@H](C(=O)O)N(c3nc(C(F)F)nc4c3oc3ccccc34)C2)c([C@]2(F)CCS(=O)(=O)C[C@H]2C)c1` [Example 2.14]: the IC50 in assay [1] stood at 248 nM; in assay [2], 7760 nM; in assay [3], 124 nM; on Human cGAS, 5 nM. Also, the “Ratio THP(cGAMP) IC50/THP(vir) IC50” value in assay [1] worked out at 31.

As to `C#Cc1cnc(O[C@H]2C[C@@H](C(=O)O)N(c3nc(C(F)(F)F)nc4c3oc3ccccc34)C2)c([C@@]2(F)CCN(C(C)=O)C[C@@H]2C)c1` [Example 2.19], the IC50 is 23 nM in assay [1], 9960 nM in assay [2], 57 nM in assay [3] and 5 nM against Human cGAS. The “Ratio THP(cGAMP) IC50/THP(vir) IC50” value in assay [1] came to 435.

Regarding `C#Cc1cnc(O[C@H]2C[C@@H](C(=O)O)N(c3nc(C(F)F)nc4c3oc3ccccc34)C2)c([C@]2(F)CCS(=O)(=O)C(C)(C)C2)c1` [Example 1.15], the 50% inhibitory concentration (IC50) in assay [1] was 11 nM; in assay [2], 10200 nM; in assay [3] it was 22 nM; against Human cGAS it was 6 nM. Moreover, the “Ratio THP(cGAMP) IC50/THP(vir) IC50” value in assay [1] was determined as 963.

As for `C[C@H]1CS(=O)(=O)C(C)(C)C[C@@]1(F)c1cc(Cl)cnc1O[C@H]1C[C@@H](C(=O)O)N(c2nc(C(F)(F)F)nc3c2oc2ccccc23)C1` [Example 1.07], the IC50 is 216 nM in assay [1], 3680 nM in assay [2], 213 nM in assay [3] and 69 nM at Human cGAS. Also, in assay [1], the “Ratio THP(cGAMP) IC50/THP(vir) IC50” value amounted to 17.

`COC(=O)[C@@H]1C[C@H](Oc2ncc(Cl)cc2[C@@]2(F)CCS(=O)(=O)C[C@@H]2C)CN1c1nc(C(F)F)nc2c1oc1ccccc12` [Example P02]: the IC50 in assay [1] was 29 nM; in assay [2] it was above 16600 nM; in assay [3], 140 nM; on Human cGAS, above 9950 nM.

Consider `C#Cc1cnc(O[C@H]2C[C@@H](C(=O)O)N(c3nc(C(F)F)nc4c3oc3ccccc34)C2)c([C@]2(F)CC(C)(C)S(=O)(=O)C[C@@H]2C)c1` [Example 1.10], for which the IC50 in assay [1] is 82 nM; in assay [2] it was 2240 nM; in assay [3] it was 70 nM; at Human cGAS, 40 nM. For the same molecule, the “Ratio THP(cGAMP) IC50/THP(vir) IC50” value in assay [1] was determined as 28.

Turning to `O=C(O)[C@@H]1C[C@H](Oc2ncc(Cl)cc2C2(F)CCS(=O)(=O)CC2)CN1c1nc(C(F)(F)F)nc2c1oc1ccccc12` [Example 2.02], the IC50 is 540 nM in assay [1], above 16600 nM in assay [2], 89 nM in assay [3] and 4 nM against Human cGAS. Further, the “Ratio THP(cGAMP) IC50/THP(vir) IC50” value in assay [1] is listed as above 31.

In the case of `COC(=O)[C@@H]1C[C@H](Oc2ncc(Cl)cc2[C@@]2(OC)CC(C)(C)S(=O)(=O)C[C@@H]2C)CN1c1nc(C(F)F)nc2c1oc1ccccc12` [Example P03], the IC50 in assay [1] was 202 nM; in assay [2], 20600 nM; in assay [3] it was 1990 nM; at Human cGAS it was 7250 nM.

Take `C[C@H]1COCC[C@]1(F)c1cc(Br)cnc1O[C@H]1C[C@@H](C(=O)O)N(c2nc(C(F)F)nc3c2oc2ccccc23)C1` [Example 2.16]: the IC50 in assay [1] was 125 nM; in assay [2], above 16600 nM; in assay [3] it was 325 nM; against Human cGAS, 4 nM. Besides, the “Ratio THP(cGAMP) IC50/THP(vir) IC50” value in assay [1] is reported as 133.

`C#Cc1cnc(O[C@H]2C[C@@H](C(=O)O)N(c3nc(C(F)F)nc4c3oc3ccccc34)C2)c([C@@]2(F)CCN(C(C)=O)C[C@@H]2C)c1` [Example 2.20]: the IC50 stood at 17 nM in assay [1], 9890 nM in assay [2], 25 nM in assay [3] and 4 nM against Human cGAS. For the same molecule, the “Ratio THP(cGAMP) IC50/THP(vir) IC50” value in assay [1] worked out at 583.

Regarding `O=C(O)[C@@H]1C[C@H](Oc2ncc(Cl)cc2[C@]2(F)CCOC[C@@H]2C(F)(F)F)CN1c1nc(C(F)F)nc2c1oc1ccccc12` [Example 1.25], the half-inhibitory concentration (IC50) in assay [1] was 712 nM; in assay [2], 13500 nM; in assay [3] it was 502 nM; against Human cGAS, 10 nM. Besides, the “Ratio THP(cGAMP) IC50/THP(vir) IC50” value in assay [1] is reported as 19.

Regarding `C#Cc1cnc(O[C@H]2C[C@@H](C(=O)O)N(c3nc(C(F)F)nc4c3oc3ccccc34)C2)c([C@@]2(F)CC(C)(C)S(=O)(=O)C[C@@H]2C)c1` [Example 1.09], the IC50 in assay [1] was below 5 nM; in assay [2], 15800 nM; in assay [3], 4 nM; against Human cGAS it was 4 nM. In addition, the “Ratio THP(cGAMP) IC50/THP(vir) IC50” value in assay [1] was above 2935.

Consider `C[C@H]1COCC[C@]1(F)c1cc(-c2cccc(N(C)C)c2)cnc1O[C@H]1C[C@@H](C(=O)O)N(c2nc(C(F)F)nc3c2oc2ccccc23)C1` [Example 6.04], for which the IC50 worked out at 21 nM in assay [1], 7680 nM in assay [2], 75 nM in assay [3] and 17 nM at Human cGAS. The “Ratio THP(cGAMP) IC50/THP(vir) IC50” value in assay [1] turned out to be 371.

Take `C[C@H]1CS(=O)(=O)CC[C@]1(F)c1cc(Cl)cnc1O[C@H]1C[C@@H](C(=O)O)N(c2nc(C(F)(F)F)nc3c2oc2ccccc23)C1` [Example 2.10]: the IC50 was found to be 4 nM in assay [1], 18800 nM in assay [2], 15 nM in assay [3] and 3 nM at Human cGAS. Also, the “Ratio THP(cGAMP) IC50/THP(vir) IC50” value in assay [1] was determined as 4605.

With `C[C@H]1CN(C2COC2)CC[C@]1(F)c1cc(Cl)cnc1O[C@H]1C[C@@H](C(=O)O)N(c2nc(C(F)F)nc3c2oc2ccccc23)C1` [Example 1.23], the IC50 in assay [1] amounted to 185 nM; in assay [2], 8400 nM; in assay [3] it was 165 nM; at Human cGAS it was 15 nM. For the same molecule, in assay [1], the “Ratio THP(cGAMP) IC50/THP(vir) IC50” value is recorded as 45.

As to `CC#Cc1cnc(O[C@H]2C[C@@H](C(=O)O)N(c3nc(C(F)(F)F)nc4c3oc3ccccc34)C2)c([C@@]2(F)CCN(C3COC3)C[C@@H]2C)c1` [Example 2.17], the IC50 in assay [1] came out at 382 nM; in assay [2], 3920 nM; in assay [3], 287 nM; against Human cGAS, 96 nM. For the same molecule, the “Ratio THP(cGAMP) IC50/THP(vir) IC50” value in assay [1] stood at 10.

With `C#Cc1cnc(O[C@H]2C[C@@H](C(=O)O)N(c3nc(C(F)(F)F)nc4c3oc3ccccc34)C2)c([C@]2(F)CCS(=O)(=O)C(C)(C)C2)c1` [Example 1.14], the IC50 in assay [1] amounted to 42 nM; in assay [2] it was 5280 nM; in assay [3], 53 nM; at Human cGAS, 9 nM. Also, the “Ratio THP(cGAMP) IC50/THP(vir) IC50” value in assay [1] is 127.

Regarding `C[C@H]1CN(C(N)=O)CC[C@]1(F)c1cc(Cl)cnc1O[C@H]1C[C@@H](C(=O)O)N(c2nc(C(F)F)nc3c2oc2ccccc23)C1` [Example 1.24], the IC50 came to 248 nM in assay [1], 21800 nM in assay [2], 479 nM in assay [3] and 7 nM at Human cGAS. Besides, in assay [1], the “Ratio THP(cGAMP) IC50/THP(vir) IC50” value is reported as 88.

In the case of `C#Cc1cnc(O[C@H]2C[C@@H](C(=O)O)N(c3nc(C(F)F)nc4c3oc3ccccc34)C2)c([C@@]2(F)CCS(=O)(=O)C[C@@H]2C)c1` [Example 2.11], the IC50 was 4 nM in assay [1], above 16600 nM in assay [2], 3 nM in assay [3] and 2 nM at Human cGAS. The “Ratio THP(cGAMP) IC50/THP(vir) IC50” value in assay [1] is given as above 3829.

Consider `CNc1cc(-c2cnc(O[C@H]3C[C@@H](C(=O)O)N(c4nc(C(F)F)nc5c4oc4ccccc45)C3)c([C@@]3(F)CCOC[C@@H]3C)c2)ccn1` [Example 3.02], for which the half-inhibitory concentration (IC50) in assay [1] worked out at 23 nM; in assay [2] it was 4710 nM; in assay [3], 53 nM; against Human cGAS, 2 nM. For the same molecule, in assay [1], the “Ratio THP(cGAMP) IC50/THP(vir) IC50” value was found to be 201.

In the case of `C#Cc1cnc(O[C@H]2C[C@@H](C(=O)O)N(c3nc(C(F)(F)F)nc4c3oc3ccccc34)C2)c([C@]2(F)CCS(=O)(=O)C[C@H]2C)c1` [Example 2.15], the IC50 in assay [1] worked out at 207 nM; in assay [2], 10300 nM; in assay [3], 291 nM; against Human cGAS it was 6 nM. In addition, in assay [1], the “Ratio THP(cGAMP) IC50/THP(vir) IC50” value is recorded as 50.

For `O=C(O)[C@@H]1C[C@H](Oc2ncc(Cl)cc2[C@@]2(F)CCN3C(=O)OC[C@H]3C2)CN1c1nc(C(F)F)nc2c1oc1ccccc12` [Example 2.13], the IC50 in assay [1] is 818 nM; in assay [2], above 16600 nM; in assay [3] it was 582 nM; against Human cGAS, 7 nM. For the same molecule, the “Ratio THP(cGAMP) IC50/THP(vir) IC50” value in assay [1] is on record as above 20.

For the origin of these results see patent US12043625B2, “Pyridine derivatives with c-linked cyclic substituents as cGAS inhibitors” (BOEHRINGER INGELHEIM INTERNATIONAL GMBH, priority 2021, dated 2024).
